Where two headings read alike, the source gives them in different places.
Test system: rat liver tissue
Protocol: From the nucleic acid hybridization data, a prediction score is calculated for that sample and compared to a reference score from a toxicity reference database according to the following equation. The sample prediction score=ΣwiR^FC^i. “i” is the index number for each gene in a gene expression profile to be evaluated. “wi” is the PLS weight (or PLS score, see Table 2 for an exemplary list of PLS scores for a general kidney toxicity model) for each gene. “R^FC^i” is the RMA fold-change value for the i^th gene, as determined from a normalized RMA matrix of gene expression data from the sample (described above). The PLS weight multiplied by the RMA fold-change value gives a gene regulation score for each gene, and the regulation scores for all the individual genes are added to give a prediction score for the sample.
To establish a toxicity prediction score cut-off value for a toxicity model, the true-positive and false positive rates for each possible score cut-off value are computed, using the scores from all tox and non-tox samples in the training set. This generates an ROC curve, which we use to set the cut-off score at the point on the ROC curve corresponding to ˜5% false positive rate. For example, in a kidney toxicity model of Table 2, a cut-off prediction score is about 0.318.
The conversion algorithm was tested using the liver toxicity model described in U.S. Provisional Application Ser. No. 60/559,949 and herein incorporated by reference.
The first step to using a conversion algorithm is to map microarray fragments. The RGU34 A microarray fragments which comprise the liver toxicity model were mapped to the RAE2.0 microarray. The liver toxicity model is based on 1,100 Affymetrix GeneChip® RGU34 A microarray fragments. […] See Affymetrix's “User's Guide to Product Comparison Spreadsheets” which is herein incorporated by reference.
Once the microarray fragments are mapped, training samples are selected to calculate the conversion model weights. The inventors searched Gene Logic's ToxExpress® reference database, a database which is built on the Affymetrix RGU34A platform, for samples that covered a large amount of interquartile range with respect to signal intensity. […] The samples maximized Ei(Max(Xij)−Min(Xij)), where i indexes genes and j indexes samples.
For this reason, a training set consisting of 100 compounds and vehicles from rat liver tissue was selected.
The 100 training samples were used to train the weights in the conversion algorithm. This step is important because it provides for the quantitative aspect of the conversion. The weight training was performed based on a multiple regression analysis with probe values as the independent variables and RMA expression as the sum of the dependent variables.
Test samples were evaluated using the trained conversion algorithm. The multiple regression model was built on the 11 perfect match probe intensities and generated a predicted RGU34 expression value from a weighted sum of RAE 2.0 probe values. Each test array was scaled to an average probe intensity of 10 (log scale). The conversion algorithm used is given as:
Yi^RGU34=βio+Σβij LOG(Xij^RAE2.0/S)

[1] = RAE2.0 converted RMA data, liver predictive model
[2] = RGU34 RMA data, liver predictive model

Compound | number of test samples predicted as toxic out of the total number of samples for that compound (rat, in vivo) | number of test samples predicted as toxic out of the total number of samples for that compound [1] | number of test samples predicted as toxic out of the total number of samples for that compound [2]
CN(C)CCC(c1ccc(Cl)cc1)c1ccccn1 (stereo not drawn) [Chlorpheniramine, chlorpheniramine] | 0/3 |  | 
CCSCC[C@H](N)C(=O)O [Ethionine, ethionine] |  | 3/3 | 3/3
CN(C)CCC=C1c2ccccc2CCc2ccccc21 [Amitryptilene] |  | 2/2 | 1/2
[H]/N=C(/N)N[C@H]1[C@H](O)[C@@H](O)[C@H](O[C@@H]2O[C@@H](C)[C@](O)(C=O)[C@H]2O[C@@H]2O[C@@H](CO)[C@H](O)[C@@H](O)[C@@H]2NC)[C@@H](N/C(N)=N\[H])[C@@H]1O [Streptomycin, streptomycin] | 0/3 |  | 
C[C@]12CC[C@@H]3c4ccc(O)cc4CC[C@H]3[C@@H]1CC[C@@H]2O [Estradiol, estradiol] | 3/3 |  | 
CN(CCOc1ccc(CC2SC(=O)NC2=O)cc1)c1ccccn1 (stereo not drawn) [Rosiglitazone, rosiglitazone] | 0/3 |  | 
O=C(O)c1cc(-c2ccc(F)cc2F)ccc1O [Diflunisal, diflunisal] | 2/3 |  | 
CCC1(c2ccccc2)C(=O)NC(=O)NC1=O [Phenobarbital, phenobarbital] |  | 3/3 | 3/3
CCOC(=O)C(C)(C)Oc1ccc(Cl)cc1 [Clofibrate] | 0/3 |  | 

Source: patent US20080281526A1, “Methods For Molecular Toxicology Modeling” (priority 2004, published 2008)
